In patent US10221163B2 (priority 2015, dated 2019):
Where two headings read alike, the source gives them in different places.

Columns and labels:
[1] = test system: Pseudomonas aeruginosa efflux+ (MB9798), IMP-1; assay type: cell-based; conditions: concentration restoring susceptibility to imipenem at 2 μg/mL in the presence of a class A, C, D serine β-lactamase inhibitor closely related to relebactam
Outline: (§1)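 Steps: add fixed imipenem and/or ceftazidime (usually CLSI breakpoint) and fixed AmpC-directed class A/C inhibitor to microbroth MIC wells; titrate MBL inhibitor; record concentration regaining susceptibility for each PAO1-derived strain; divide efflux+ by efflux− value.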

[2] = test system: Serratia marcescens expressing IMP-1 (CL5741); assay type: cell-based; conditions: IMP-1 strain CL5741, with imipenem 1 μg/ml, 95% inhibition of growth
Outline: (§2)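 Clinical isolates (E. coli NDM-1, S. marcescens IMP-1, K. pneumoniae VIM-1) were diluted 1:100 from saline suspension into 1.1×CAMHB and exposed to test compound with imipenem at 1 μg/ml. Plates were incubated at 35° C for 22 hours to 24 hours, and growth was read by absorbance.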

[3] = test system: Escherichia coli expressing NDM-1 (CLB30005, CLB30016); assay type: cell-based; conditions: NDM-1 strain, with imipenem 1 μg/ml, 95% inhibition of growth
Outline: as §2

[4] = test system: Klebsiella pneumoniae expressing VIM-1 (IHMA599644); assay type: cell-based; conditions: VIM-1 strain IHMA599644, with imipenem 1 μg/ml, 95% inhibition of growth
Outline: as §2

VIM-1 = VIM-1 (Pseudomonas aeruginosa (strain ATCC 15692 / DSM 22644 / CIP 104116 / JCM 14847 / LMG 12228 / 1C / PRS 101 / PAO1), UniProt A0A0F7KYQ8); experiment: biochemical; conditions: CCF2-FA substrate, 30 pM enzyme, 2 hours at 25° C.
Outline: (§3)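 Two-hour, 25° C incubation of enzyme with inhibitor and CCF2-FA (7-hydroxycoumarin–cephalosporin–fluorescein). Fluorescence read-out; IC50 via 4-parameter fit.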

[5] = test system: Pseudomonas aeruginosa MB9798 vs MB9799; conditions: ratio MITC95 PA_9798/MITC95 PA_9799
Outline: as §1

IMP-1 = IMP-1 (Serratia marcescens, UniProt P52699); experiment: biochemical; assay type: biochemical; conditions: fluorescence assay, CCF2-FA substrate, 2 pM enzyme, 2 hours at 25° C.; read-out: IMP-1 IC50
Chain of IMP-1 (P52699 whole entry, looked up, species assumed): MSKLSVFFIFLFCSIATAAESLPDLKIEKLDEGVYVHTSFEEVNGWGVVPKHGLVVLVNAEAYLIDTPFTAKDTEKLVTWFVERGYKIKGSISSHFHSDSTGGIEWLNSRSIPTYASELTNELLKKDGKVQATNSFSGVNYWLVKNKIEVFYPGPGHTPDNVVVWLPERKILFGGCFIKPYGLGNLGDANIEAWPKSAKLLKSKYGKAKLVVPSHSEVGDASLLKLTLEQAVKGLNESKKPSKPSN
Outline: as §3

NDM-1 = NDM-1 (Klebsiella pneumoniae, UniProt C7C422); experiment: biochemical; assay type: biochemical; conditions: fluorescence assay, CCF2-FA substrate, 1 pM enzyme, 2 hours at 25° C.; read-out: NDM-1 IC50
Chain of NDM-1 (C7C422 whole entry, looked up, species assumed): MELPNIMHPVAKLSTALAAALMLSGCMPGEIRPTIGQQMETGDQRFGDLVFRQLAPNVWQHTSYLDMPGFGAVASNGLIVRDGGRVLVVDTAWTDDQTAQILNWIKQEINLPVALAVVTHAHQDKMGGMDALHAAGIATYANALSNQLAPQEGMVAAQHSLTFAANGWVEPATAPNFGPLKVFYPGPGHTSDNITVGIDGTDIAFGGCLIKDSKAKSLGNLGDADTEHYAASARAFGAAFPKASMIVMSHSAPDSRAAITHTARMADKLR
Outline: as §3

[6] = test system: Pseudomonas aeruginosa efflux− (MB9799), IMP-1; assay type: cell-based; conditions: concentration restoring susceptibility to imipenem at 2 μg/mL in the presence of a class A, C, D serine β-lactamase inhibitor closely related to relebactam
Outline: as §1

[7] = fluorescence assay, read-out: VIM-1 IC50

Row | SMILES | P. aeruginosa expressing IMP-1, efflux + (MB9798) MITC95 [1] [µM] | Serratia marcescens MITC95 [2] [µM] | Escherichia coli MITC95 [3] [µM] | Klebsiella pneumoniae MITC95 [4] [µM] | IC50 (VIM-1; VIM-1 IC50, fluorescence assay) [pM] | Efflux ratio [5] | IC50 (IMP-1) [pM] | IC50 (NDM-1) [pM] | P. aeruginosa expressing IMP-1, efflux − (MB9799) MITC95 [6] [µM] | IC50 (VIM-1; [7]) [pM]
1 | NCc1nc2c(-c3ccc(S(=O)(=O)NC[C@@H](O)CN)c(S(N)(=O)=O)c3-c3nn[nH]n3)cccc2s1 [Example 306, (S)—N1-(3-amino-2-hydroxypropyl)-4-(2-(aminomethyl)benzo[d]thiazol-4-yl)-(2H-tetrazol-5-yl)benzene-1,2-disulfonamide] | 0.7813 | 0.7813 | 0.7813 | 1.563 | 56.4 | 1.00 | 293 | 58.7 | 0.7813 | 
2 | NC[C@H](O)CNS(=O)(=O)c1ccc(-c2cccc3[nH]cnc23)c(-c2nn[nH]n2)c1S(N)(=O)=O [Example 307, (S)-4-(1H-benzo[d]imidazol-4-yl)-N1-(3-amino-2-hydroxypropyl)-3-(2H-tetrazol-5-yl)-benzene-1,2-disulfonamide] | 0.7813 | 1.563 | 1.563 | 1.563 |  | 1.00 | 258 | 33.9 | 0.7813 | 113
3 | Cn1c(N)nc2c(-c3ccc(S(=O)(=O)NC[C@@H](O)CN)c(S(N)(=O)=O)c3-c3nn[nH]n3)cccc21 [Example 308, (S)-4-(2-amino-1-methyl-1H-benzo[d]imidazol-4-yl)-N1-(3-amino-2-hydroxypropyl)-3-(2H-tetrazol-5-yl)benzene-1,2-disulfonamide] | 0.7813 | 0.7813 | 0.3906 | 1.563 | 179 | 1.00 | 403 | 61.9 | 0.7813 | 
4 | NC[C@H](O)CNS(=O)(=O)c1ccc(-c2ccc(N)nc2)c(-c2nn[nH]n2)c1S(N)(=O)=O [Example 309, (S)-N1-(3-amino-2-hydroxypropyl)-4-(6-aminopyridin-3-yl)-3-(2H-tetrazol-5-yl)benzene-1,2-disulfonamide] | 0.7813 | 0.5208 | 0.2279 | 1.563 | 200 | 1.00 | 501 | 197 | 0.7813 | 
5 | Nc1nc2c(-c3ccc(S(=O)(=O)NC[C@@H]4CNCCN4)c(S(N)(=O)=O)c3-c3nn[nH]n3)cccc2[nH]1 [Example 310, (S)-4-(2-amino-1H-benzo[d]imidazol-4-yl)-N1-(piperazin-2-ylmethyl)-3-(2H-tetrazol-5-yl)benzene-1,2-disulfonamide] | 0.7813 | 0.7813 | 0.7813 | 1.563 |  | 1.00 | 667 | 52.1 | 0.7813 | 169
6 | Nc1ccc(-c2ccc(S(=O)(=O)NC[C@@H]3CNCCN3)c(S(N)(=O)=O)c2-c2nn[nH]n2)cn1 [Example 312, (S)-4-(6-aminopyridin-3-yl)-N1-(piperazin-2-ylmethyl)-3-(2H-tetrazol-5-yl)benzene-1,2-disulfonamide] | 1.563 | 0.7813 | 0.3906 | 3.125 | 280 | 1.00 | 586 | 216 | 1.563 | 
7 | Nc1ncccc1-c1ccc(S(=O)(=O)NC[C@@H]2CNCCN2)c(S(N)(=O)=O)c1-c1nn[nH]n1 [Example 313, (S)-4-(2-aminopyridin-3-yl)-N1-(piperazin-2-ylmethyl)-3-(2H-tetrazol-5-yl)benzene-1,2-disulfonamide] | 3.125 | 0.7813 | 0.3906 | 3.125 | 149 | 2.00 | 1300 | 81.7 | 1.563 | 
8 | Nc1nc2c(-c3ccc(S(=O)(=O)NC[C@H]4CNCCN4)c(S(N)(=O)=O)c3-c3nn[nH]n3)cccc2[nH]1 [Example 314, (R)-4-(2-amino-1H-benzo[d]imidazol-4-yl)-N1-(piperazin-2-ylmethyl)-3-(2H-tetrazol-5-yl)benzene-1,2-disulfonamide] | 0.7813 | 1.563 | 0.7813 | 1.563 |  | 1.00 | 485 | 32.6 | 0.7813 | 114
9 | Nc1ccc(-c2ccc(S(=O)(=O)NC[C@H]3CNCCN3)c(S(N)(=O)=O)c2-c2nn[nH]n2)cn1 [Example 315, (R)-4-(6-aminopyridin-3-yl)-N1-(piperazin-2-ylmethyl)-3-(1H-tetrazol-5-yl)benzene-1,2-disulfonamide] | 1.563 | 0.7813 | 0.3906 | 6.25 | 211 | 1.00 | 459 | 169 | 1.563 | 
10 | Nc1ncccc1-c1ccc(S(=O)(=O)NC[C@H]2CNCCN2)c(S(N)(=O)=O)c1-c1nn[nH]n1 [Example 316, (R)-4-(2-aminopyridin-3-yl)-N1-(piperazin-2-ylmethyl)-3-(1H-tetrazol-5-yl)benzene-1,2-disulfonamide] | 3.125 | 0.7813 | 0.3906 | 6.25 | 212 | 2.00 | 2330 | 175 | 1.563 | 
11 | C[C@H](CN)NS(=O)(=O)c1ccc(-c2ccnc(N)c2)c(-c2nn[nH]n2)c1S(N)(=O)=O [Example 317, (R)—N1-(1-aminopropan-2-yl)-4-(2-aminopyridin-4-yl)-3-(2H -tetrazol-5-yl) benzene-1,2-disulfonamide] | 1.563 | 1.563 | 0.7813 | 3.125 |  | 0.50 | 495 | 170 | 3.125 | 133
12 | C[C@H](CN)NS(=O)(=O)c1ccc(-c2cccc(N)n2)c(-c2nn[nH]n2)c1S(N)(=O)=O [Example 318, (R)—N1-(1-aminopropan-2-yl)-4-(6-aminopyridin-2-yl)-3-(2H-tetrazol-5-yl) benzene-1,2-disulfonamide] | 1.563 | 3.125 | 0.7813 | 3.125 | 142 | 1.00 | 704 | 158 | 1.563 | 
13 | Nc1ccc2cccc(-c3ccc(S(=O)(=O)N[C@@H]4CNC[C@@H]4N)c(S(N)(=O)=O)c3-c3nn[nH]n3)c2n1 [Example 319, N^1-((3R,4S)-4-aminopyrrolidin-3-yl)-4-(2-aminoquinolin-8-yl)-3-(2H-tetrazol-5-yl)benzene-1,2-disulfonamide] | 0.7813 | 1.563 | 1.563 | 1.563 |  | 1.00 | 265 | 48.3 | 0.7813 | 206
